Measured values as given in ChEMBL document CHEMBL1150700, “Antitumor agents, 74. Bruceanol-A and -B, two new antileukemic quassinoids from Brucea antidysenterica” (1985).

Assays:
Assay type in all cases: functional
P388 [1] = assay: In vivo antitumor activity against mouse P388 cells at 1 mg/kg in 3 day dosing schedule relative to control
P388 [2] = assay: In vivo antitumor activity against mouse P388 cells at 0.5 mg/kg in 3 day dosing schedule relative to control
P388 [3] = assay: In vivo antitumor activity against mouse P388 cells at 2 mg/kg in 3 day dosing schedule relative to control
P388 [4] = assay: In vivo antitumor activity against mouse P388 cells at 200 mg/kg in 1 day dosing schedule relative to control

COC(=O)[C@@]12OC[C@]34[C@H]([C@@H](O)[C@@H]1O)[C@@]1(C)[C@H](O)C(=O)C=C(C)[C@@H]1C[C@H]3OC(=O)[C@H](OC(=O)c1ccccc1)[C@@H]24
T/C (P388 [1]): 129%
T/C (P388 [2]): 130%

CCCCCC(=O)O[C@H]1C(=O)O[C@@H]2C[C@H]3C(C)=CC(=O)[C@@H](O)[C@]3(C)[C@H]3[C@@H](O)[C@H](O)[C@@]4(C(=O)OC)OC[C@]32[C@@H]14
T/C (P388 [2]): 123%
T/C (P388 [3]): 134%

O=c1[nH]cc(F)c(=O)[nH]1 [FLUOROURACIL]
T/C (P388 [4]): 135%
